Results on one compound are retold here after PMC6892255, “Identification of a potent small-molecule inhibitor of bacterial DNA repair that potentiates quinolone antibiotic activity in methicillin-resistant Staphylococcus aureus^” (Bioorganic & Medicinal Chemistry, 2019).

“Also recorded” adds a separate entry of the source.

Type in all cases: cell-based, Staphylococcus aureus
One experiment has as its system MRSA (USA300 JE2). Description: Growth inhibition in the presence of H2O2. Here is the method:
The analogue panel was further tested for potentiation of alternative DNA-damaging agents Mitomycin-C (MMC) and hydrogen peroxide (Table S2), which function via alkylation and oxidization DNA bases, respectively.
2.1. Biological and biochemical methods
Bacterial strains and culture conditions
Strains utilized in the present study are detailed in Table S1. All strains used were cultivated on Mueller Hinton Agar (MHA) and grown to stationary-phase in Mueller Hinton Broth (MHB) at 37 °C for 16 h, with shaking at 180 r.p.m.
Minimum inhibitory concentration (MIC) assays
MIC assays were performed in 96 well plates and MICs were determined in accordance with the broth microdilution protocol.4 Strains grown to stationary-phase in MHB were adjusted to 5 x 10^5 colony-forming units (CFU)/mL in fresh MHB (100 µL/well) supplemented with DMSO to ensure a constant concentration of 0.5% (v/v) DMSO across all experiments. Where […]
or H2O2 (200 μM). Test compounds were prepared as two-fold serial dilutions. Cells were […]
as the lowest concentration with no visible bacterial growth, and the optical density at 600 nm (OD600) was recorded. OD600 measurements were background corrected against no-inocula control and normalized to DMSO control for dose-response analysis. The EC50 value mean and SEM were calculated from individual EC50 values from three biological replicates. […]

The test system of experiment [1] is SOS response in JE2 cells. The experiment is described as follows: SOS reporter assay (GFP under control of the recA promoter). The note with it: for SOS response (normalized GFP fluorescence/cell): JE2 recA-GFP reporter, SOS activated with CFX (10 µM), titration of compound. An excerpt: A SOS reporter system was generated by transformation of JE2 cells with a plasmid containing GFP under control of the recA promoter. Activation of the SOS response in these cells results in expression of GFP which can be monitored by fluorescence intensity. […] IMP-1700 (10) was coupled with N-Boc-ethylenediamine to afford amide 19, followed by removal of the Boc group in 4 M HCl/dioxane and purification using strong cation exchange resin. The resulting free amine 20 was coupled to N-hydroxysuccinimide (NHS)-activated Sepharose resin at 4 °C overnight (Figure 2C), and the remaining NHS sites quenched in Tris buffer. SoluBL21 competent E. coli were transformed with pET28b^+ containing StrepII-tagged AddA and hexahistidine-tagged AddB, and expression induced overnight at 16 °C. […] Beads were washed three times with lysis buffer and bound protein eluted with SDS-PAGE sample buffer, followed by PAGE separation. […]
JE2 transformed with SOS-inducible pCN34 PrecA-gfp reporter plasmid expressing GFP under the control of the recA promoter were grown to late stationary phase at 37 °C in MHB containing kanamycin (90 μg/mL). Stationary phase JE2 culture (1 mL) was centrifuged (17,000 × g, 2 min), the supernatant removed and cells resuspended in assay media (12.5 µM […]
concentration was maintained >12.5 µM and DMSO concentration maintained at 1.5% (v/v).
JE2 culture (20 uL) was added to inhibitor solutions (180 µL) to a final cell density of 4 x 10^7 CFU/mL and samples incubated in a M200-PRO microplate reader (Tecan) at 37 °C with 700 rpm agitation for 17 h. GFP fluorescence intensity and OD600 were measured at 15 min intervals. Measurements were background corrected against no-inocula control and normalized to no-test inhibitor control at mid-exponential growth phase (4.5 h) for dose-response analysis. […]
Background: In a reporter assay the amount or activity of a reporter protein is the signal.

A further experiment relates to JE2. Description: Synergy experiments with CFX (growth rate method, Chou-Talalay, CompuSyn). Here is the method: A more precise method to determine EC50 values for individual compounds and combinations was used to increase accuracy for CI calculations. […]
Synergy experiments were performed as described for MIC assays. Two-fold serial dilutions […]
carried out at 37 °C, with shaking at 220 r.p.m. OD600 was recorded every 30 min over a 17 h period. Measurements were background corrected against the no-inocula control before a growth curve of OD600 against time was constructed. The gradient of the exponential phase was obtained by linear regression. Gradients were normalized against the smallest and largest value within the respective data set prior to analysis with the CompuSyn software (http://www.combosyn.com/) to calculate combination index (CI) and dose-reduction index (DRI) values for each drug combination. […]

For orientation: EC50 means the midpoint of the concentration-response curve. In the case of `O=C(O)c1cn(C2CC2)c2cc(N3CCN(C(=S)Nc4ccc(C(F)(F)F)cc4)CC3)c(F)cc2c1=O` [Compound 10], in the experiment with MRSA (USA300 JE2) (JE2), the “Potentiation of hydrogen peroxide” value is “did not potentiate”. The EC50 in the experiment with MRSA (USA300 JE2) (read-out: EC50 Compound + H2O2 (200 µM), MRSA USA300 JE2, H2O2 200 µM) was 4.1 ± 0.6 µM; in the experiment with JE2 (Staphylococcus aureus, JE2, rate of exponential growth phase over 17 h at 37 °C) it was 2.8 ± 0.2 µM. In addition, the “Effect on cell number (OD600) in SOS reporter assay” value in experiment [1] (JE2 recA-GFP reporter with CFX (10 µM)) is given as “decrease in cell number at low micromolar concentrations”. For the same compound, the results for the “SOS response (normalized GFP fluorescence/cell)” value in experiment [1] and in experiment [1] (listed as IMP-1700) were “decreased” and “decreased normalized GFP fluorescence/cell; also recorded: decreased SOS response”, respectively. Also, the “Dose-reduction index (DRI)” value in the experiment with JE2 (JE2, combination with CFX, CompuSyn) is 2.8. Further, the “Combination index (CI) with CFX” value with JE2 (JE2, constant-ratio combination with CFX, CompuSyn) stood at 0.70.
